Measured values as given in patent US4988517A, “Method and composition for inhibiting colon carcinogenesis” (American Health Foundation, priority 1988, dated 1991).
“Also recorded” adds a separate entry of the source.

Tests used:
[1] = tested on: azoxymethane ("AOM")-induced colon, kidney, and hepatocarcinogenesis; conditions: 50 ppm in semipurified high fat diet, 2 wk before, during, 1 wk after carcinogen, liver; cited from earlier work
[2] = tested on: benzo(a) pyrene-induced forestomach tumors; conditions: mice; cited from earlier work
colon carcinogenesis = conditions: initiation phase; cited from earlier work
[3] = rat, in vivo; cited from earlier work
[4] = tested on: cancer induced by a variety of chemical carcinogens; conditions: diet or drinking water; colon, mammary gland, pancreas; cited from earlier work
[5] = tested on: non-selenium-dependent glutathione peroxidase; assay: Non-selenium-dependent glutathione peroxidase activity in tissues of rats fed the diets; assay type: in vivo, male F344 rats; conditions: among the dietary groups
Procedure: (§1) Body weights were recorded weekly until the animals reach 16 wk of age and then every 4 wk. Six vehicle-treated animals randomly chosen from each dietary group while they were consuming experimental and control diets were used for tissue and blood plasma glutathione peroxidase analysis.
Biochemical Determination. For the determination of tissue and blood plasma glutathione peroxidase activity, 6 vehicle-treated animals from each dietary group, while the animals were on experimental and control diets, were used. Before sacrificing the animals, blood was obtained under ether anesthesia by cardiac puncture with a syringe. They were then decapitated,and liver, kidneys, small intestine, and colon were rapidly removed. The liver was perfused with ice-cold normal saline. […]
Glutathione peroxidase activity was determined spectrophotometrically according to a modification of the enzyme-coupled assay procedure of Paglia and Valentine. […] Total glutathione peroxide was measured with cumene hydroperoxide as a substrate. Selenium-dependent glutathione peroxide was measured with tert-butyl hydroperoxide. […] Absorbance was measured at 340 nm, and activity was measured from the slope of the lines as mol NADPH oxidized/min/mg protein. […] Protein concentration in the cytosol fraction was measured by the method of Lowry et al. with bovine serum albumin as standard.

[6] = General toxicity observation in rats fed the diets; assay type: in vivo, male F344 rats; conditions: 25 ppm in diet
Description: (§2) Experimental Procedure. Male F344 rats received at weaning were quarantined for 10 days and given access to AIN-76A semipurified diet (control diet). They were then be randomly allocated by weight to one of three dietary groups (control diet and 25 ppm BSC and 25 ppm benzylthiocyanate ("BTC") diets). […] Therefore one of our goals was to compare BSC with its sulfur analog BTC. Each dietary group was divided into AOM-treated (27 animals per subgroup) and vehicle-treated (12 animals per subgroup) subgroups and housed in plastic cages with filter tops in the animal holding room under controlled environmental conditions.
(§3) Beginning at 5 wk of age, groups of rats fed the control diet were transferred to diets containing 25 ppm BSC or 25 ppm BTC. At 7 wk of age, the animals in each group, except the vehicle-treated controls, received two weekly s.c. injections of AOM at a dose level of 15 mg/kg body weight/wk. Vehicle controls were treated with an equal volume of normal saline. One wk after AOM or saline treatment, animals receiving the BSC and BTC diets were transferred to the control diets and continued on this diet until the termination of the experiment. The 1-wk delay before transferring to control diet was to ensure complete metabolism and excretion of the carcinogen. The animals receiving the control diet continued on the same diet. The experiment was terminated 34 wk after the last AOM injection.
as §1

[7] = Body weights of male F344 rats fed the experimental diets; assay type: in vivo; conditions: for Body wt, Initial (Wk 0) / Body wt, wk 4 / Body wt, wk 8 / Body wt, wk 16 / Body wt, wk 22 / Body wt, wk 30 / Body wt, wk 37 (at termination): 25 ppm in diet, Mean ± SD
Description: as §2, §3, §1

[8] = tested on: azoxymethane-induced ear duct tumors; assay: AOM-induced ear duct tumor incidence; assay type: in vivo, male F344 rats; conditions: 25 ppm in diet; AOM treated
Description: as §2, §3
Both AOM-and vehicle-treated animals were sacrificed by CO2 euthanasia. Following laparotomy, the entire stomach, small intestine, and large intestine were resected and opened longitudinally, and the contents flushed with normal saline. The location, number, and size of the colon and small intestinal tumors were noted grossly under the dissection microscope. All other organs, including liver and kidneys, were also examined grossly for tumors. […]
(§4) Statistical Analysis. The data on tumor incidence were analyzed statistically by the x^2 method and Fischer's exact probability test, and tumor multiplicity was analyzed by Student's t test. Biochemical results were analyzed by Student's t test.

[9] = tested on: azoxymethane-induced metastasis; assay: AOM-induced metastasis; assay type: in vivo, male F344 rats
Description: as §2, §3
(§5) Both AOM-and vehicle-treated animals were sacrificed by CO2 euthanasia. Following laparotomy, the entire stomach, small intestine, and large intestine were resected and opened longitudinally, and the contents flushed with normal saline. The location, number, and size of the colon and small intestinal tumors were noted grossly under the dissection microscope. All other organs, including liver and kidneys, were also examined grossly for tumors. Tissues were fixed in 10% buffered formalin, embedded in paraffin blocks, and processed by routine histological methods with the use of eosin and hematoxylin stains.

LD50 in rats = conditions: rat, in vivo
Description: (§6) The instant invention may open new approaches to the development of effective and less toxic novel selenium-containing chemopreventive agents. For example, although is too early to determine definitively the optimum dose which will be suitable for human use, we can estimate a dose based on the LD50 of BSC in rats (lethal dose at which 50% of the rats die). […] An order of magnitude of ten (10) times less than the LD50 may be appropriate for humans.

[10] = LD50 in humans, extrapolated from rats; set-up: unit not given here; conditions: extrapolated: 125×70^0.75
Description: as §6

[11] = tested on: azoxymethane-induced colon tumors; assay: AOM-induced colon tumor incidence and multiplicity (initiation phase feeding); assay type: in vivo, male F344 rats
Description: as §2, §3, §5, §4
(§7) Using the above-identified procedures, a study was made of the effect of feeding benzylselenocyanate and its sulfur analogue, benzylthiocyanate, two (2) weeks before, during and until one (1) week after carcinogen administration (initiation phase) on intestinal carcinogenesis induced by azoxymethane (CAS: 25843-45-2) in male F344 rats.

[12] = tested on: selenium-dependent glutathione peroxidase; assay: Selenium-dependent glutathione peroxidase activity in tissues of rats fed the diets; assay type: in vivo, male F344 rats
Procedure: as §1
Biochemical Determination. For the determination of tissue and blood plasma glutathione peroxidase activity, 6 vehicle-treated animals from each dietary group, while the animals were on experimental and control diets, were used. Before sacrificing the animals, blood was obtained under ether anesthesia by cardiac puncture with a syringe. They were then decapitated,and liver, kidneys, small intestine, and colon were rapidly removed. The liver was perfused with ice-cold normal saline. The small intestine and colon were slit open longitudinally and freed from all the contents, and the mucosa was scraped with a microscope glass slide. The liver and kidneys were trimmed free of connective tissue, minced with scissors, and homogenized for 10 s in 3 volumes of buffer, pH 7.3 (0.25 sucrose-10 mM EDTA-50 mM potassium phosphate) using a Brinkman Polytron at low speed. The colonic and small intestinal mucosal scrapings were immediately placed into 3 volumes of the same buffer and homogenized similarly. The homogenates were centrifuged in a Sorvall RC-2B centrifuge at 10,000×g, 4° C., for 20 min. The supernatant was centrifuged in a Beckman Ultracentrifuge at 100,000×g, 4° C., for 1 h. The resulting cytosol fraction was used for determination of glutathione peroxidase activity and protein.
Glutathione peroxidase activity was determined spectrophotometrically according to a modification of the enzyme-coupled assay procedure of Paglia and Valentine. The reaction mixture consisted of 50 mM potassium phosphate buffer (pH 7.0), 1 mM EDTA, 0.2 mM NADPH, 1 enzyme unit/ml oxidized glutathione-reductase, 1 mM glutathione, and 1.5 mM cumene hydroperoxide in a total volume of 1 ml. The cytosol was added to the above mixture and allowed to incubate 5 min. at room temperature. Total glutathione peroxide was measured with cumene hydroperoxide as a substrate. Selenium-dependent glutathione peroxide was measured with tert-butyl hydroperoxide. The reaction was started with the addition of substrate solution. Absorbance was measured at 340 nm, and activity was measured from the slope of the lines as mol NADPH oxidized/min/mg protein. Blank reactions without cytosol were run simultaneously. Protein concentration in the cytosol fraction was measured by the method of Lowry et al. with bovine serum albumin as standard.
as §4

[13] = tested on: azoxymethane-induced small intestinal tumors; assay: AOM-induced small intestinal tumor incidence and multiplicity; assay type: in vivo, male F344 rats
Description: as §2, §3, §5, §4, §7

[14] = 6 ppm selenium in the form of selenomethionine; cited from earlier work
[15] = 25 ppm in diet 2 wk before to 1 wk after AOM
[16] = 25 ppm in diet, 27 (BSC) or 26 (BTC) animals/group
[17] = 25 ppm in diet 5 wk, Mean ± SE (n = 6)

## COc1ccc([SeH])cc1 [MBS, p-methoxybenzenenselenol, reference compound]
[1]
  Inhibition of AOM-induced carcinogenesis: inhibited azoxymethane ("AOM")-induced colon, kidney, and hepatocarcinogenesis in rats
[2]
  Inhibition of benzo(a)pyrene-induced forestomach tumors: effective inhibitors of benzo(a) pyrene-induced forestomach tumors in mice

## O=[Se](O)O [sodium selenite]
Colon carcinogenesis
  Inhibition of colon carcinogenesis: does not inhibit colon carcinogenesis during the initiation phase
[3]
  Toxicity relative to BSC: more toxic than BSC
[4]
  Protection against cancer induction: protects against cancer induced by a variety of chemical carcinogens

## N#C[Se]Cc1ccccc1 [BSC, benzylselenocyanate]
[5]
  Non-selenium-dependent glutathione peroxidase activity (in words): no differences in the activity of non-selenium-dependent glutathione peroxidase activity among the dietary groups
[6]
  Evidence of toxicity in animals fed the diet: no evidence of toxicity
[7]; AOM or vehicle treated, in words
  Body weights of animals fed experimental vs control diets: comparable
[7]; AOM treated
  Body wt, Initial (Wk 0): 40 ± 4 g
  Body wt, wk 4: 174 ± 9 g
  Body wt, wk 8: 279 ± 15 g
  Body wt, wk 16: 348 ± 16 g
  Body wt, wk 22: 390 ± 21 g
  Body wt, wk 30: 430 ± 20 g
  Body wt, wk 37 (at termination): 449 ± 22 g
[7]; Vehicle treated
  Body wt, Initial (Wk 0): 41 ± 4 g
  Body wt, wk 4: 179 ± 12 g
  Body wt, wk 8: 284 ± 19 g
  Body wt, wk 16: 364 ± 19 g
  Body wt, wk 22: 402 ± 20 g
  Body wt, wk 30: 448 ± 26 g
  Body wt, wk 37 (at termination): 467 ± 21 g
[8]
  % of animals with ear duct tumors: 7 % of animals
[9]; 25 ppm in diet, AOM treated
  No. of animals with metastasis: 0 No. of animals
[9]; several organs
  AOM-induced metastasis (in words): inhibits AOM-induced metastasis in several organs; also recorded: none of the animals in BSC and BTC diet groups developed metastasis
LD50 in rats
  LD50: 125 mg/kg
[10]
  approximate LD50 in humans: ~3025
[11]; [15]
  Colon tumor incidence, Adenocarcinoma: 11 % of animals with tumors
  Colon tumor incidence, Adenoma: 44 % of animals with tumors
  Colon tumor incidence, Total (adenomas plus adenocarcinomas): 48 % of animals with tumors
[11]; [16]
  Number of animals with colon tumors, Adenocarcinoma: 3 number of animals
  Number of animals with colon tumors, Adenoma: 12 number of animals
  Number of animals with colon tumors, Total: 13 number of animals
[11]; 25 ppm in diet, Mean ± SD
  Colon tumor multiplicity, Adenocarcinoma: 0.11 ± 0.3 no. of tumors/animals
  Colon tumor multiplicity, Adenoma: 0.70 ± 0.9 no. of tumors/animals
  Colon tumor multiplicity, Total: 0.81 ± 1.0 no. of tumors/animals
[11]; 25 ppm in diet, in parentheses
  Number of tumors per group, colon Adenocarcinoma: 3 number of tumors per group
[11]; initiation phase of carcinogenesis
  Inhibition of AOM-induced colon tumors (in words): inhibits AOM-induced tumors in the colon; also recorded: inhibited colon tumors during the initiation phase of carcinogenesis
[11]; vs control diet
  Incidence of adenocarcinomas of the colon (in words): significantly lower in rats fed the BSC diet than in those fed the control diet; also recorded: significantly inhibits
  Incidence of total colon tumors (in words): significantly lower in rats fed the BSC diet than in those fed the control diet
[11]; vs control diet and BTC diet
  Number of colon adenocarcinomas per animal (in words): significally inhibited in animals fed the BSC diet compared to those fed the control diet and BTC diet; also recorded: significantly inhibits
  Number of total colon tumors per animal (in words): significally inhibited in animals fed the BSC diet compared to those fed the control diet and BTC diet
[11]; vs control diet and BTC diet, not statistically significant
  Multiplicity of colon adenomas (in words): slight inhibition of multiplicity of adenomas in the BSC diet as compared to the control diet and BTC diet
[2]
  Inhibition of benzo(a)pyrene-induced forestomach tumors: effective inhibitors of benzo(a) pyrene-induced forestomach tumors in mice
[12]; [17]
  Selenium-dependent glutathione peroxidase activity, Kidney: 1.70 0.29 μmol NADPH oxidized/min/mg protein
  Selenium-dependent glutathione peroxidase activity, Liver: 1.88 0.60 μmol NADPH oxidized/min/mg protein
  Selenium-dependent glutathione peroxidase activity, Plasma: 0.78 0.14 μmol NADPH oxidized/min/mg protein
[12]; 25 ppm in diet 5 wk, colonic mucosa, Mean ± SE (n = 6)
  Selenium-dependent glutathione peroxidase activity, Colon: 0.56 0.14 μmol NADPH oxidized/min/mg protein
[12]; 25 ppm in diet 5 wk, small intestinal mucosa, Mean ± SE (n = 6)
  Selenium-dependent glutathione peroxidase activity, Small intestine: 0.71 0.13 μmol NADPH oxidized/min/mg protein
[12]; kidney, colon and small intestine
  Selenium-dependent glutathione peroxidase activity (in words): increase in selenium-dependent glutathione peroxidase activity in the kidney, colon, and small intestine; also recorded: significant increase in the enzyme activity in kidney and colonic and small intestinal mucosae of animals fed the BSC diet compared to that in those animals fed the BTC diet and control diet
[12]; liver and plasma
  Selenium-dependent glutathione peroxidase activity (in words): no effect on this enzyme activity in the liver and plasma; also recorded: not affected
[13]; [15]
  Small intestinal tumor incidence, Adenocarcinoma: 15 % of animals with tumors
  Small intestinal tumor incidence, Adenoma: 4 % of animals with tumors
  Small intestinal tumor incidence, Total: 19 % of animals with tumors
[13]; [16]
  Number of animals with small intestinal tumors, Adenocarcinoma: 4 number of animals
  Number of animals with small intestinal tumors, Adenoma: 1 number of animals
  Number of animals with small intestinal tumors, Total: 5 number of animals
[13]; 25 ppm in diet, Mean ± SD
  Small intestinal tumor multiplicity, Adenocarcinoma: 0.15 0.3 no. of tumors/animal
  Small intestinal tumor multiplicity, Adenoma: 0.04 0.2 no. of tumors/animal
  Small intestinal tumor multiplicity, Total: 0.19 0.3 no. of tumors/animal
[13]; differences among groups not significant
  Incidence of small intestinal adenocarcinomas (in words): slightly reduced the incidence of small intestinal adenocarcinomas
[13]; rat, in vivo
  Inhibition of AOM-induced tumors in the small intestine (in words): to a certain extent, in the small intestine
[13]; vs BTC diet and control diet
  Small intestinal tumor multiplicity, total (in words): significantly inhibited in animals fed the BSC diet compared to those fed the BTC diet and control diet
[13]; vs control diet
  Multiplicity of small intestinal adenocarcinomas (in words): significant inhibition in the multiplicity of small intestinal adenocarcinomas; also recorded: significantly inhibits

## C[Se]CC[C@H](N)C(=O)O [selenomethionine]
[14]
  Liver damage: caused liver damage as indicated by extensive necrosis and fibrosis
